Test: rotorod neurologic toxicity test, mice (ip)
Format: in vivo
Settings: male, Carthworth Farms No. 1, in vivo, ip; mouse, i.p., rotorod test at peak effect (Table 6); read-out: MOUSE ED50 Neurotox
Excerpt: Compounds were screened for anticonvulsant activity in both male albino Carthworth Farms No. 1 mice (ip route) and male albino Sprague Dawley rats [oral (po) route]. Activity was established using the electrical (maximal electroshock or MES) test. In the MES test, a drop of electrolyte solution with anesthetic (0.5% butacaine hemisulfate in 0.9% sodium chloride) was used in the eyes of the animals prior to positioning the corneal electrodes and delivery of current. […] Protection endpoints were defined as the abolition of the hind limb tonic extensor component of the induced seizure. In mice, effects of compounds on forced spontaneous motor activity were determined using the rotorod test. […] Normally under these conditions, mice maintain their balance almost indefinitely. In rats, motor impairment is assessed by observing for overt evidence of ataxia, abnormal gait and stance, and/or loss of placing response and muscle tone. In the mouse identification screening study all compounds were given at three dose levels (30, 100, 300 mg/kg) and two time periods (0.5 hours, 4 hours). Typically, in the MES seizures test one animal was tested at 30 mg/kg and 300 mg/kg, and three animals at 100 mg/kg. In the rotored toxicity test four animals were tested at 30 mg/kg, and 300 mg/kg, and eight animals at 100 mg/kg.
The quantitative determination of the median effective (ED50) and toxic doses (TD50) was conducted at previously calculated times of peak effect. Groups of at least eight animals were tested using different doses of test compound until at least two points wee determined between 100 and 0% protection and minimal motor impairment. The dose of candidate substance required to produce the defined end-point in 50% of the animals in each test and the 95% confidence interval was calculated.

CC(=O)NC(C)C(=O)NCc1ccccc1 (racemic) [compound 1, N-Acetyl-D,L-alanine-N′-benzylamide]
ED50: 454 mg/kg
